Data published in patent publication US11975106B2, “Uses of halogenated xanthenes in oncology and virology” (Provectus Pharmatech, Inc., priority 2020, dated 2024).
pEC50, pIC50: −log10 of the molar value. Values after ≈ are worked out from the molar mass of the structure shown. Like-named read-outs stand apart in the source and are kept apart here.

Assays:
[1] = in vivo; cited from earlier work
[2] = tested on: SARS-CoV-2 isolate USA-WA1/2020; assay: microbe, parasite or virus in culture; assay type: cell-based
[3] = Plasma protein binding, ultracentrifugation method, rat plasma; assay type: in vitro ADME
Text: (§1) In normal rats, 75-80% of the RB was recovered from the albumin fraction and the remaining 20-25% in other protein fractions [Tsao et al. 1988, supra; and Meurman, Acta medica Scan, Supp 167, Chapters I, III, V, VII, X and XII (1960)].

STING = STING dimerization by Western blot in THP-1 AML cells; assay type: cell-based
Description: Cells were treated with RB and the induction of STING was evaluated by Western blot analysis using cyclic guanosine monophosphate-adenosine monophosphate (cGAMP) as a positive control.
(§2) These studies were carried out using RB at 100 μM, or about 0.01% RB. Cytokine assays were carried out prior to the addition of RB to the cell culture medium (0), and at 8, 24 and 48 hours thereafter.
(§3) Proteins that associate with STING in the presence of RB were purified by immunoprecipitation and analyzed by mass spectrometry (LC-MS/MS). The culture supernatants from RB-treated cells were probed for a panel of 42 immune cytokines using the Bio-Plex® multiplex bead-based assay system (Bio-Rad Laboratories, Inc.).

[4] = humans, intravenous; cited from earlier work
young male Wistar rats = conditions: cited from earlier work
[5] = cited from earlier work
[6] = Classic IV diagnostic use of RB, blood concentration; assay type: in vivo, human; conditions: 100 mg single IV bolus, blood volume approximately 5 L (also approximately 20 μM)
Description: Based on a molecular weight of 1018 g/mole for disodium RB, the classic IV diagnostic use of RB, conducted by giving 100 mg RB as a single IV bolus to adults with a standard blood volume of approximately 5 L, achieved a concentration of approximately 20 mg/L in the blood, or approximately 20 μM RB. Exposure at such a level would have minimal direct cytotoxic effect on solid tumor or hematologic malignancies, as illustrated by the results of Swift et al. 2019 or Swift et al. 2018, above.

SARS-CoV-2 [7] = tested on: SARS-CoV-2
Vero cells = conditions: 48 hours
[8] = cited from earlier work; remark: listed apart in the source
[9] = Clinical studies of PV-10 delivered intratumorally; assay type: in vivo, human
Description: In clinical studies of PV-10 (10% disodium RB in saline for injection), RB has been tolerated at a bolus dose of 1500 mg upon intravasation when delivered intratumorally; this equates to an exposure of approximately 300 mg/L in the bloodstream (300 μM RB).

leukemia cell lines = conditions: cited from earlier work
[10] = Plasma protein binding, ultracentrifugation method, human plasma; assay type: in vitro ADME
Text: as §1

THP-1 AML cells = assay: Cytokine/chemokine Bio-Plex assay of THP-1 AML culture supernatants; assay type: cell-based; conditions: RB 100 μM
Description: as §2, §3

[11] = tested on: SARS-CoV-2 viral envelope protein (E gene) vRNA; assay: qPCR of viral RNA (E gene) after RB treatment; assay type: cell-based
SARS-CoV-2 [12] = assay type: cell-based; conditions: Calu-3 cells, 48-hour RB contact; read-out: EC50 (viral titer)
[13] = package insert; cited from earlier work
progressive COVID-19 = conditions: cited from earlier work
[14] = oral 300 mg/kg/day, young male Wistar rats
[15] = rats, similar concentrations for comparators

In the case of `CCC(CC)COC(=O)[C@H](C)N[P@](=O)(OC[C@H]1O[C@@](C#N)(c2ccc3c(N)ncnn23)[C@H](O)[C@@H]1O)Oc1ccccc1` [remdesivir, reference compound], the half-life [1] is listed as “about 0.89 hours”, the pEC50 ([2]; Severe acute respiratory syndrome coronavirus 2, Vero C1008, read-out: EC50 (percent plaque forming unit)) is listed as 6.07 and the pIC50 ([2]; Severe acute respiratory syndrome coronavirus 2, Vero C1008, read-out: IC50 (percent inhibition)) is listed as 6.07.
For `O=C1OC2(c3cc(I)c(O)c(I)c3Oc3c2cc(I)c(O)c3I)c2c(Cl)c(Cl)c(Cl)c(Cl)c21` [RB, 4,5,6,7-tetrachloro-2′,4′,5′,7′-tetraiodofluorescein], the plasma protein binding [3] was 99.2%, the plasma protein binding ([3]; 1 μM) was 99.0% and the “STING dimerization (Western blot)” value (STING; RB at 100 μM) was “new about 70-KD STING dimer band”. The “induction of PDL-1” value (STING; compared to cGAMP controls) was “no induction”, the circulatory half-life [4] was “about 30 minutes” and the “influence on growth rate” value (young male Wistar rats; [14]) was “no influence”. For the same molecule, the relative liver weight (young male Wistar rats; [14]) was “significant decrease”, the “H^3-UTP incorporation into RNA or RNA content in liver nuclei (RNA synthesis in vivo)” value (young male Wistar rats; [15]) was “No effect” and the solubility ([5]; in 2-methoxyethanol (printed also as 6%)) was 60 mg/mL (≈ 61.6 mM). For the same molecule, the solubility ([5]; in ethanol (printed also as 3%)) was 30 mg/mL (≈ 30.8 mM), the solubility ([5]; in water (printed also as 10%)) was at least 100 mg/mL and the “concentration in the blood” value [6] was “approximately 20 mg/L”. For the same molecule, the “SI (CC50/EC50)” value (SARS-CoV-2 [7]; Vero cells, 48 hours) was 3211, the “inhibition in viral titers” value (SARS-CoV-2 [7]; Vero cells, approximately 1 to 100 μM RB, 48 hours of contact) was “complete inhibition” and the pEC50 (SARS-CoV-2 [7]; read-out: EC50 (viral titer)) was 7.27. For the same molecule, the CC50 (Vero cells) was 175 µM, the bound in serum ([8]; equilibrium dialysis, serum from rats lacking serum albumin) was “more than 99.8%” and the “recovered from the albumin fraction” value ([8]; normal rats) was 75-80%. For the same molecule, the “recovered in other protein fractions” value ([8]; normal rats) was 20-25%, the “exposure in the bloodstream” value ([9]; at 1500 mg bolus (printed also as 300 μM RB)) was “approximately 300 mg/L” and the tolerated bolus dose ([9]; upon intravasation when delivered intratumorally as PV-10) was 1500 mg. For the same molecule, the pIC50 (leukemia cell lines; primary pediatric leukemia cell lines) was 4.03, the pIC50 (leukemia cell lines; refractory (relapsed) pediatric leukemia cell lines) was 3.91 and the plasma protein binding ([10]; 1 μM) was 99.8%. For the same molecule, the plasma protein binding ([10]; 10 μM) was 99.9%, the pIC50 ([2]; RB alone, 2 hours of contact, Vero C1008, read-out: IC50 for inhibition) was 4.17 and the pIC50 ([2]; RB plus 0.15 μM remdesivir, 2-hour RB contact, Vero C1008, read-out: IC50 for inhibition) was 4.32. The “increase in IL-6” value (THP-1 AML cells; 24 hours following exposure) was “approximately 10 fold”, the “increase in IL-8” value (THP-1 AML cells; 24 hours following exposure) was “approximately 10 fold” and the “increase in IP-10” value (THP-1 AML cells; 24 hours following exposure) was “approximately 10 fold”. For the same molecule, the MCP-1 levels (THP-1 AML cells) was “significant increase”, the “induction of IFN gamma” value (THP-1 AML cells; peak at 24 hours) was over 2 fold and the “induction of MCP-3” value (THP-1 AML cells; peak at 24 hours) was over 2 fold. The “cycle threshold (ct) of sub-genomic viral RNA” value [11] was “higher ct values”, the “viral E gene copy numbers / viral production” value ([11]; RB added after the virus has been incubated with the cells) was “no effect” and the “viral E gene copy numbers” value ([11]; virus and RB added at the same time) was “reduction compared to control”. For the same molecule, the “viral E gene copy numbers” value ([11]; virus pre-treated with RB 0.6 μM, 1 hour, p<0.05) was “lower copy numbers” and the pEC50 (SARS-CoV-2 [12]) was 7.82.
In the case of “Yervoy®: immune checkpoint inhibitor monoclonal antibody”, the “terminal t1/2” value [13] is given as 15.4 days.
For `Cc1cc(C)c(N=Nc2c(O)c(S(=O)(=O)[O-])cc3cc(S(=O)(=O)[O-])ccc23)cc1C.[Na+].[Na+]` [Ponceau 3R, reference compound], the “H^3-UTP incorporation into RNA or RNA content in liver nuclei (RNA synthesis in vivo)” value (young male Wistar rats; [15]) is given as “stimulate RNA synthesis”.
In the case of `O=S(=O)([O-])c1ccc2c(N=Nc3ccc(S(=O)(=O)[O-])c4ccccc34)c(O)c(S(=O)(=O)[O-])cc2c1.[Na+].[Na+].[Na+]` [Amaranth, reference compound], the “H^3-UTP incorporation into RNA or RNA content in liver nuclei (RNA synthesis in vivo)” value (young male Wistar rats; rat, in vivo) is listed as “stimulate RNA synthesis”.
For `N#C[C@@]1(c2ccc3c(N)ncnn23)O[C@H](CO)[C@@H](O)[C@H]1O` [GS-441524], the half-life [1] is given as “about 25 hours”.
In the case of “tocilizumab: immunosuppressive humanized monoclonal antibody against the interleukin-6 receptor”, the death rate ratio (progressive COVID-19; 28-day mortality, 95% CI 0.77-0.96, p=0.007) is given as 0.86 and the “proportional reduction in 28-day mortality” value (progressive COVID-19; about 4000 hospitalized patients, progressive COVID-19) is given as 13%.
